Data as given in paper PMC11187126, “Structure and dynamics of the pyroglutamylated RF-amide peptide QRFP receptor GPR103” (Nature Communications, 2024).
Where two headings read alike, the source gives them in different places. No end group written: not given here.

Molecular target: T1, GPR103 T215^5.39A (Homo sapiens, UniProt Q96P65, T215A)
T1 construct: we used human full-length QRFPR-encoding plasmids; expressed in transfected cells; host or cells: HEK293 cells (HEK293A in the flow cytometry section), pCAGGS vector
T1 sequence (Q96P65 1-431 T215A): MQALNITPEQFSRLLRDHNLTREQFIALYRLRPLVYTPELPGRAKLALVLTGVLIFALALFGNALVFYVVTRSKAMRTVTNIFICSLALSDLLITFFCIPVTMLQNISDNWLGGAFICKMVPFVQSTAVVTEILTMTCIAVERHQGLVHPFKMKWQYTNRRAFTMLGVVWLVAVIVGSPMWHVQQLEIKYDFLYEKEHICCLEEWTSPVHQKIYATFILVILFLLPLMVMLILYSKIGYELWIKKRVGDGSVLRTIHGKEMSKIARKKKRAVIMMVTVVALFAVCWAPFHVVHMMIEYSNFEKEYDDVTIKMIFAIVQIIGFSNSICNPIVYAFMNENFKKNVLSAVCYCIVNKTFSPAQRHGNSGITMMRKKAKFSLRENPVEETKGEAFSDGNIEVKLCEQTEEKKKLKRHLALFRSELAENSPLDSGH
Assay: TGFα shedding assay; Exp. level WT (1:1)
Type: cell-based
Method: For the TGFα shedding assay and the flow cytometry analysis, we used human full-length QRFPR-encoding plasmids. Specifically, GPR103 was N-terminally modified with an HA signal sequence followed by a FLAG epitope and then a flexible linker ([…]; the FLAG epitope is underlined) and inserted into the pCAGGS vector. Plasmid encoding GPR103 mutants were generated using Quickchange Site-Directed Mutagensis kit (Agilent).
The TGFα shedding assay was performed as described previously with minor modifications. Plasmid transfection was performed in a 6-well plate with a mixture of 500 ng (per well in a 6-well plate) AP-TGFα-encoding plasmid and 200 ng GPR103-encoding plasmid. After 1-day culture, the transfected cells were harvested by trypsinization, pelleted by centrifugation at 190 × g for 5 min, and washed once with 5 mM HEPES (pH 7.4)-containing Hank’s Balanced Salt Solution (HBSS). After centrifugation, the cells were resuspended in 8 mL of the HEPES-containing HBSS. The cell suspension was seeded in a 96-well culture plate (cell plate) at a volume of 90 μL (per well hereafter) and incubated in a 37 °C incubator with 5% CO2 for 30 min. […] After spinning the cell plates at 190 × g for 2 min, 80 μL of conditioned media was transferred to an empty 96-well plate (conditioned media (CM) plate). Then, 80 μL of AP reaction solution (10 mM p-nitrophenylphosphate (p-NPP), 120 mM Tris-HCl (pH 9.5), 40 mM NaCl, and 10 mM MgCl2) was dispensed into the cell plates and the CM plates. Absorbance at 405 nm of the plates was measured using a microplate reader (SpectraMax 340 PC384, Molecular Devices) before and after 1-h incubation at room temperature. Ligand-induced AP-TGFα release was calculated by subtracting spontaneous AP-TGFα release signal from ligand-induced AP-TGFα release signal. The AP-TGFα release signals were fitted to a four-parameter sigmoidal concentration–response curve, using the Prism 10 software (GraphPad Prism). For each replicate experiment, the pEC50 parameter (negative logarithmic values of EC50 values) of the individual GPR103 mutants were normalized to that of the wild-type GPR103 performed in parallel, and resulting ∆pEC50 values were used to denote ligand response activity of the mutants. […]
Exp. le vel: WT (1:5 0)Exp. le vel: WT (1:5 0)Exp. le vel: WT (1:5 0)Exp. le vel: WT (1:2 0)Exp. le vel: WT (1:2 0)Exp. le vel: WT (1:1 0) […]
L1 4N - t e r mA F2 5N - t e r mA I 2 6N - t e r mA Y 2 9N - t e r mA C 9 82 .5 7A T10 22 .6 1A Exp . l eve l: WT (1 :5)Exp . l evel : >WT (1 :1)Exp. le vel: WT (1:2 0)Exp. le vel: WT (1:2 0)Exp. le vel: WT (1:5 0)Exp . l eve l: WT (1 :1) […]
Exp. le vel: WT (1:1 0)Exp. le vel: WT (1:2 0) C 1 1 83 .2 5AExp. le vel: WT (1:5 0)Exp. le vel: WT (1:5 0)Exp. le vel: WT (1:2 0)Exp . l eve l: WT (1 :5) […]
Exp. le vel: WT (1:5 0)Exp. le vel: WT (1:1 0)Exp. le vel: WT (1:5 0) E203ECL2AExp . l evel : >WT (1 :1)Exp. le vel: WT (1:5 0)Exp. le vel: WT (1:5 0) […]
Exp . l eve l: WT (1 :1) F28Exp. le vel: WT (1:5 0) C 2 8 56 .4 7AExp. le vel: WT (1:2 0) WExp. le vel: WT (1:2 0) F28Exp. le vel: WT (1:5 0)Exp . l evel : >WT (1 :1) […]
Exp. le vel: WT (1:5 0)Exp. le vel: WT (1:5 0) C 3 2 77 .4 8AExp . l eve l: WT (1 :5)Exp . l evel : >WT (1 :1)Exp . l evel : >WT (1 :1) […]
Suppl eme nt ary Figure 1 | Mutational analysis of GPR103. […]
mutants. Data are presented as mean values ± SEM, normally n=3-5; dots), each performed in triplicate. b-d Cell-surface expression (b) and QRFP26-in-duced activation of GPR103 (c, d) were analyzed by the flow cytometry and the TGFα shedding assay, respectively. From the concentration–response curves (a), Emax (c) and ΔpEC50 (d) values relative to the wild type were calculated. Colors in the mutant bars indicate an expression level matching to that of titrated wild type. Statistical analyses were performed using the ordinary one-way ANOVA followed by Dunnett tests with the expression-matched […]

- Emax (Exp. #1): 95.52 % WT
- Emax (Exp. #2): 99.37 % WT
- Emax (Exp. #3): 104.64 % WT
- Emax (mean, read-out: Emax): 99.8%
- EC50 (n = 3): 6.46 nM
- Emax (n = 3, read-out: Emax): 103 ± 2.2%
Substance: TSGPLGNLAEELNGYSRKKGGFSFRF-NH2 [QRFP26]
